# In US20040152694A1, “Methods and compositions for treating inflammatory disorders of the airways” (priority 2003, published 2004):
# Where two headings read alike, the source gives them in different places.
# Key:
# [1] = system: airways epithelial cells of antigen sensitized BN rats; test: Allergen-induced mucus production of airways epithelial cells, PAS staining; assay type: in vivo, rat; details: mean ± SEM
# Method: Antigen sensitized BN rats were pretreated orally with 0.3, 3 and 30 mg/kg GYKI-52466 or GYKI-53773 (Talampanel) 2 hours prior to antigen challenge using a similar protocol that was described in Example 2. Lungs were isolated 48 hours subsequent to antigen exposure; samples were fixed in phosphate-buffered 8% formalin. Specimens were then routinely processed for histochemistry. In the periodic acid-Schiff stained (PAS) and haematoxylin-eosin counterstained, 5 μm thick sections, all epithelial cells of each airway segments were counted in the whole preparations at a magnification of 400×. The number of PAS(+) [mucus-producing] epithelial cells are expressed as the ratio of all epithelial cells.
# [2] = system: trachea of ovalbumin-sensitized and challenged BN-rats; test: Tracheal contraction to acetylcholine ex vivo after antigen challenge, local (intratracheal) treatment with GYKI-53773; assay type: in vivo, rat
# Method: (§1) Rats were actively sensitized to ovalbumin (OA) by a subcutaneous injection of 0.5 ml of OA/Al(OH3) gel mixture (2 mg OA+10 g Al(OH3)/100 ml saline) on day 1 with subsequent subcutaneous injections (10 mg OA+10 g Al(OH3)/100 ml saline) given on days 14 and 21. On day 28, animals received GYKI-52466, GYKI-47261 or GYKI-53773 compound orally (0.3 mg/kg or 3.0 mg/kg) 2 hours before antigen challenge. Antigen challenge was performed by inhalation of nebulised ovalbumin (1% antigen solution administered in a TSE inhalation system for 1 hour). Animals were sacrificed 48 hours post antigen challenge wherein the tracheas were removed to an organ bath. Dissected tracheas were allowed to equilibrate for 30 minutes before measuring tracheal spasmogenic response curves to acetylcholine (Ach).
# The procedures of Example 2 were followed in order to compare the effects of antigen exposure and local (intratracheal) GYKI 53773 treatments on Ach-induced tracheal contractions in allergen sensitized and challenged rats.
# [3] = system: isolated guinea pig trachea; test: Endothelin-1-induced contraction of isolated guinea pig trachea in vitro; details: for Emax at 10 µM / Emax at 30 µM: Cavia porcellus, 25 min, read-out: Contraction %: percent of maximal response to 4.5 μM histamine
# Method: In order to measure the effect of GYKI 52466 and 53773 (talampanel) on endothelin-1-induced contractions in isolated guinea pig trachea the following procedures were followed. The tracheae of male Dunkin-Hartley guinea pigs (350-450 g) were removed; helical strips were prepared and mounted in an organ bath. After equilibration, the strips were contracted with endothelin-1 and when contraction had reached the plateau, different concentrations of GYKI-52466, 53773 or the suitable vehicles were added into the chambers. Changes in tensions were expressed as the percentage of the maximal response to 4.5 μM histamine measured at the beginning of the experiment.
# [4] = system: trachea of ovalbumin-sensitized and challenged BN-rats; test: Tracheal contraction to acetylcholine ex vivo after antigen challenge, oral pretreatment; assay type: in vivo, rat; details: for MAX: Contraction at maximal Ach concentration relative to control / ED50: −log M acetylcholine (Ach) causing 50% contraction relative to control: 3.0 mg/kg orally 2 hours before antigen challenge, mean ± SEM; for MAX: Contraction at maximal Ach concentration relative to control: control = 100; for ED50: −log M acetylcholine (Ach) causing 50% contraction relative to control: trachea 48 h post challenge; for Tracheal hyper-reactivity to acetylcholine after ovalbumin challenge: dose of 3.0 mg/kg, oral
# Method: as §1
# [5] = system: A7r5 established smooth muscle cell line (ATCC); test: Growth factor-induced proliferation of smooth muscle cells, 3H-thymidine incorporation, A7r5; assay type: cell-based, rat
# Method: (§2) Primary and permanently cultured rat aortic smooth muscle cells were made senescent by serum deprivation (0.1% FCS, 48 hours). Proliferation was induced by re-addition of serum (10%) containing the necessary growth factors and the effect of different concentrations of the AMPA receptor modulators on the proliferation of the cells was determined by measuring ^3H-thymidine incorporation.
# [6] = system: Rat aortic smooth muscle cells (primary); test: Growth factor-induced proliferation of smooth muscle cells, 3H-thymidine incorporation, RASMC; assay type: cell-based
# Method: as §2
# AMPA receptors = test: Ventilated, perfused rat lung: AMPA-induced lung injury
# Method: The presence/function of AMPA receptors in the lung of experimental animals was investigated in the same model (ventilated perfused rat lung) that was applied for the examination of NMDA-receptors by Said et al., (Proc Natl. Acad. Sci. (USA) 93:4688 (1996). The lung of anesthetized SPRD rats were ventilated and were in situ perfused with a constant flow of Krebs solution. L-arginine, AMPA and AMPA-antagonist were added directly to the perfusate as described by Said et al, supra. As it is shown in Table 2, activation of the AMPA receptors triggered an acute edematous lung injury manifested by the significant increase in airway pressure (PAW) pulmonary artery pressure (PAP) and the ratio of wet and dry weight of the lung after the treatment.
# [7] = system: trachea of ovalbumin-sensitized and challenged BN-rats; test: Tracheal contraction to acetylcholine ex vivo after antigen challenge, local (intratracheal) NBQX; assay type: in vivo, rat; details: for ED50: −log M acetylcholine (Ach) causing 50% contraction relative to control / MAX: Contraction at maximal Ach concentration relative to control: local
# [8] = system: trachea of ovalbumin-sensitized and challenged BN-rats; test: Tracheal contraction to acetylcholine ex vivo after antigen challenge, systemic (intraperitoneal) NBQX; assay type: in vivo, rat
# Method: as §1
# The procedures of Example 2 were followed in order to compare the effects of antigen exposure and systemic (intraperitoneal) NBQX treatments on Ach-induced tracheal contractions in allergen sensitized and challenged rats.
# [9] = 0.3 mg/kg orally 2 hours prior to antigen challenge, lungs 48 hours after
# [10] = 3 mg/kg orally 2 hours prior to antigen challenge
# [11] = 30 mg/kg orally 2 hours prior to antigen challenge
# [12] = second dose column (dose number not given)
# [13] = third dose column (dose number not given)
# [14] = AMPA (200 μM) alone in perfusate, SPRD rats
# [15] = third (highest) dose column (dose number not given)
compound,measurement,setting,value
"CC(=O)N1N=C(c2ccc(N)cc2)c2cc3c(cc2CC1C)OCO3 (single isomer, unassigned; (-)) [GYKI-53773, (−)-1-(4-Aminophenyl)-3-acetyl-4-methyl-3,4-dihydro-7,8-methylenedioxy-5H-2,3-benzodiazepine]",% PAS(+) cells of total epithelial cells,[1]; [9],12.34 ± 1.39%
same,% PAS(+) cells of total epithelial cells,[1]; [10],9.49 ± 1.08%
same,% PAS(+) cells of total epithelial cells,[1]; [11],5.02 ± 0.75%
same,Allergen-induced airways hyperresponsiveness,"[2]; 1 μg/kg, single administration",strongly reduced the allergen-induced airways hyperresponsiveness
same,ED50: −log M acetylcholine (Ach) causing 50% contraction relative to control,"[2]; first dose column (dose number not given), challenged 7.22, control 5.89",5.80 ± 0.47 −log M
same,MAX: Contraction at maximal Ach concentration relative to control,"[2]; first dose column (dose number not given), challenged 312, control 100",202 ± 66
same,ED50: −log M acetylcholine (Ach) causing 50% contraction relative to control,[2]; [12],5.73 ± 0.39 −log M
same,MAX: Contraction at maximal Ach concentration relative to control,[2]; [12],113 ± 19
same,ED50: −log M acetylcholine (Ach) causing 50% contraction relative to control,[2]; [13],5.68 ± 0.55 −log M
same,MAX: Contraction at maximal Ach concentration relative to control,[2]; [13],129 ± 30
same,Contraction caused by ET-1 in the isolated guinea pig trachea,[3],dose-dependently inhibit the contraction
same,Emax at 10 µM,"[3]; 10 μM, 25 minutes after addition, vehicle 84 ± 8, Mean ± SD (n)",43 ± 9%
same,Emax at 30 µM,"[3]; 30 μM, 25 minutes after addition, vehicle 66 ± 8, Mean ± SD (n)",7 ± 4%
same,MAX: Contraction at maximal Ach concentration relative to control,[4],85 ± 16
same,ED50: −log M acetylcholine (Ach) causing 50% contraction relative to control,[4],4.64 ± 0.34 −log M
same,Tracheal hyper-reactivity to acetylcholine after ovalbumin challenge,[4],brought this elevation back to control level
same,Inhibition (% of control) A7r5,[5]; 0.03 μg/ml,21 % of control
same,Inhibition (% of control) A7r5,[5]; 0.3 μg/ml,43 % of control
same,Inhibition (% of control) A7r5,[5]; 3.0 μg/ml,87 % of control
same,Inhibition (% of control) RASMC,[6]; 0.03 μg/ml,26 % of control
same,Inhibition (% of control) RASMC,[6]; 0.3 μg/ml,59 % of control
same,Inhibition (% of control) RASMC,[6]; 3.0 μg/ml,70 % of control
"Cc1onc(O)c1CC(N)C(=O)O (stereo not drawn) [AMPA, α-Amino-3-hydroxy-5-methyl-4-isoxazole propionate]",PAP: Pulmonary artery pressure after 60 minutes perfusion as a percent of 0 minute pressure,AMPA receptors; [14],147.9 ± 8.6 (7) percent
same,W/D: Ratio of wet and dry weight of lungs after 60-minute perfusion,AMPA receptors; [14],14.8 ± 3.9 (3)
same,PAW: Airway pressure after 60 minute perfusion as a percent of 0 minute pressure,"AMPA receptors; AMPA (200 μM) alone in perfusate, SPRD rats, n in brackets",183.4 ± 15.6 (7) percent
"NS(=O)(=O)c1cccc2c1c([N+](=O)[O-])cc1[nH]c(=O)c(=O)[nH]c12 [NBQX, 2,3-Dihydroxy-6-nitro-7-sulphamoyi-benzo(f)quinoxaline]",Allergen-induced airways hypersensitivity,"[7]; local administration, statistically significant only at the highest applied dose",inhibits allergen-induced airways hypersensitivity in a dose-dependent manner
same,ED50: −log M acetylcholine (Ach) causing 50% contraction relative to control,"[7]; first dose column (dose number not given), challenged 6.70, control 5.68",5.85 ± 0.59 −log M
same,MAX: Contraction at maximal Ach concentration relative to control,"[7]; first dose column (dose number not given), challenged 327, control 100",308 ± 128
same,ED50: −log M acetylcholine (Ach) causing 50% contraction relative to control,[7]; [12],5.20 ± 0.72 −log M
same,MAX: Contraction at maximal Ach concentration relative to control,[7]; [12],108 ± 28
same,ED50: −log M acetylcholine (Ach) causing 50% contraction relative to control,[7]; [15],3.44 ± 0.36 −log M
same,MAX: Contraction at maximal Ach concentration relative to control,[7]; [15],60 ± 14
same,Inhibition (% of control) RASMC,[6]; 0.03 μg/ml,1 % of control
same,Inhibition (% of control) RASMC,[6]; 0.3 μg/ml,5 % of control
same,Inhibition (% of control) RASMC,[6]; 3.0 μg/ml,94 % of control
same,ED50: −log M acetylcholine (Ach) causing 50% contraction relative to control,"[8]; 0.15 mg/kg intraperitoneal, challenged 7.31, control 6.16",6.29 ± 0.51 −log M
same,MAX: Contraction at maximal Ach concentration relative to control,"[8]; 0.15 mg/kg intraperitoneal, challenged 308, control 100",178 ± 65
same,ED50: −log M acetylcholine (Ach) causing 50% contraction relative to control,[8]; 1.5 mg/kg intraperitoneal,4.98 ± 0.80 −log M
same,MAX: Contraction at maximal Ach concentration relative to control,[8]; 1.5 mg/kg intraperitoneal,115 ± 30
same,ED50: −log M acetylcholine (Ach) causing 50% contraction relative to control,[8]; 15 mg/kg intraperitoneal,5.11 ± 0.55 −log M
same,MAX: Contraction at maximal Ach concentration relative to control,[8]; 15 mg/kg intraperitoneal,125 ± 32
same,"Allergen-induced airways hypersensitivity, ED50 and maximal provoked response","[8]; intraperitoneal, dose-dependent",strongly inhibits both parameters
"CNC(=O)N1N=C(c2ccc(N)cc2)c2cc3c(cc2CC1C)OCO3 (single isomer, unassigned; (-)) [GYKI-53784, (−)-1-(4-Aminophenyl)-3-methylcarbamoyl-4-methyl-7,8-methylenedioxy-3,4-dihydro-5H-2,3-benzodiazepine]",W/D: Ratio of wet and dry weight of lungs after 60-minute perfusion,"AMPA receptors; AMPA (200 μM) + 53784 (200 μM), AMPA alone 14.8, control 6.6",14.3 ± 5.6 (4)
same,PAP: Pulmonary artery pressure after 60 minutes perfusion as a percent of 0 minute pressure,"AMPA receptors; AMPA (200 μM) + 53784 (200 μM), AMPA alone 147.9, control 96.0",114.0 ± 23.0 (4) percent
same,PAW: Airway pressure after 60 minute perfusion as a percent of 0 minute pressure,"AMPA receptors; AMPA (200 μM) + 53784 (200 μM), AMPA alone 183.4, control 99.3",110.3 ± 19.1 (4) percent
same,Effect on airway and pulmonary arterial pressures,AMPA receptors; AMPA-treated perfused rat lung,decreased both the airway and the pulmonary arterial pressures
Cc1cn2c(n1)Cc1ccc(Cl)cc1C(c1ccc(N)cc1)=N2 [GYKI-47261],MAX: Contraction at maximal Ach concentration relative to control,[4],98 ± 13
same,ED50: −log M acetylcholine (Ach) causing 50% contraction relative to control,[4],5.26 ± 0.30 −log M
same,Tracheal hyper-reactivity to acetylcholine after ovalbumin challenge,[4],brought this elevation back to control level
"CC1=NN=C(c2ccc(N)cc2)c2cc3c(cc2C1)OCO3 [GYKI-52466, 1-(4-Aminophenyl)-4-methyl-7,8-methylenedioxy-5H-2,3-benzodiazepine]",% PAS(+) cells of total epithelial cells,[1]; [9],16.09 ± 1.82%
same,% PAS(+) cells of total epithelial cells,[1]; [10],15.18 ± 1.68%
same,% PAS(+) cells of total epithelial cells,[1]; [11],14.17 ± 1.59%
same,Contraction caused by ET-1 in the isolated guinea pig trachea,[3],dose-dependently inhibit the contraction
same,Emax at 10 µM,[3],53 ± 7%
same,Emax at 30 µM,[3],23 ± 9%
same,MAX: Contraction at maximal Ach concentration relative to control,[4],135 ± 32
same,ED50: −log M acetylcholine (Ach) causing 50% contraction relative to control,[4],5.60 ± 0.46 −log M
same,Tracheal hyper-reactivity to acetylcholine after ovalbumin challenge,[4],brought this elevation back to control level
